From patent US6613317B1, “Volatile attractants for diabrotica species” (priority 1988, dated 2003)
Marks after values point to notes of the source that are not given here.

How the values were obtained:
[1] = tested on: western corn rootworm (WCR) adults; assay: Sticky trap attraction in corn, estragole analogues (Example 3); type: in vivo, Diabrotica virgifera virgifera; details: 100 mg per trap, n = 4; for Mean number of WCR per sticky trap after 24 hours: August 5 (Table 10)
Description: (§1) Test chemicals were applied by capillary micropipettes to cotton dental wicks that were attached to tops of 1.0 liter cylindrical paper cartons covered with TangleTrap™, Grand Rapids, Mich. The trapping techniques used were as previously described in Example 1. Cinnamyl alcohol, 4-methoxycinnamaldehyde, cinnamyl acetate, and 4-(4′methoxyphenyl)-3-butene-2-one which are solids at ambient temperature were prepared as standard w/v solutions in acetone prior to dosing the cotton wicks. All treatments were made at a dosage of 100 mg or 100 μL of attractant per trap. Control traps had untreated wicks. Four replicates of treated and untreated traps were positioned randomly 10 meters apart on top of 1 m high posts along the edges of 25-50 ha. fields of hybrid corn (Zea mays), infested with adult NCR, SCR, and WCR beetles. Several experiments detailed in the Tables were made in a 0.4 ha plot of sweet corn (Illini X-tra Sweet).
(§2) Attraction of Diabrotica species adults of the sticky traps was measured by the mean number of beetles caught after 1 day (ca. 24 hours) exposure. The significance of the treatments was determined by analysis of variance and the individual means were separated by Duncan's multiple range test (Statistical Package for the Social Sciences, Nie, et al., 2nd. ed. McGraw-Hill, New York (1975). The data was logarithmically transformed for statistical analysis. Means and standard deviations are presented for the untransformed data. Significance levels were set at P=0.05 for all statistical analyses.

[2] = tested on: southern corn rootworm (SCR) adults; assay: as above; type: in vivo, Diabrotica undecimpunctata howardi; details: 100 mg per trap, n = 4; for Mean number of SCR per sticky trap after 24 hours: August 5 (Table 10)
Description: as §1, §2

[3] = tested on: northern corn rootworm (NCR) adults; assay: as above; type: in vivo, Diabrotica barberi; details: August 5 (Table 10); 100 mg per trap; n = 4
Description: as §1, §2

D. barberi = assay: Sticky trap attraction in prairie habitat, Trelease Woods (Example 2); type: in vivo, Diabrotica barberi; details: August 14, 1987; 100 mg per trap; n = 4
Description: (§3) The candidate lures in all experiments were purchased commercially and exceeded 98% purity. The test chemicals were applied by capillary micropipettes to cotton dental wicks which were attached to the tops of 1.0 liter cylindrical paper cartons covered with TangleTrap™ (Tanglefoot Co., Grand Rapids, Mich.). The sticky trap techniques used were as described in Example 1. Cinnamyl alcohol and para-methoxycinnamaldehyde, which are solids, were dissolved in glass-distilled acetone prior to dosing the cotton wicks. […]. Control traps had untreated cotton wicks. Four replicates of treated and untreated traps were randomly positioned 10 meters apart on top of 1 m high posts along the border of a eight foot wide strip cut through the middle of a 4.05 ha relict prairie at Trelease Woods (ca. two miles northeast of Urbana, Ill.). The field consisted primarily of Andropogon gerardii Vitman (big bluestem) and a variety of composites. The tests were conducted in mid-August of two years and were timed to coincide with the presence of D. cristata and D. barberi adults in the flower heads of Canada thistle (Carduus arvensis Robson). In the second year, several new attractants of D. v. virgifera and D. barberi were tested in Trelease Woods and along the edge of a 0.8 ha field of hybrid corn located at the Pomology South Farms, Urbana, Ill. Attraction of Diabrotica species to the various lures was measured by the mean number of beetles caught after 24-h. On one date in late August of the first year, D. cristata and D. barberi were removed from the traps and sexed in the laboratory. The significance of treatments in all tests was determined by an analysis of variance and the individual means were separated by Duncan's multiple range test (Statistical Package for Social Science, Nie, et al., SPSS: statistical package for the social sciences, 2nd ed. McGraw-Hill, New York (1975). Data were logarithmically transformed for statistical analysis and the means and standard deviations are presented for the untransformed data.

D. cristata = assay: as above; type: in vivo, Diabrotica cristata; details: August 14, 1987; 100 mg per trap; n = 4
Description: as §3

D. v. virgifera = assay: as above; type: in vivo, Diabrotica virgifera virgifera; details: August 14, 1987; 100 mg per trap; n = 4
Description: as §3

D. u. howardi = assay: as above; type: in vivo, Diabrotica undecimpunctata howardi; details: August 14, 1987; 100 mg per trap; n = 4
Description: as §3

NCR = assay: Limit of response rating of squash blossom volatiles on sticky traps (Example 5); type: in vivo, Diabrotica barberi; details: 24 hour; four replicate traps; 0.01 mg to 200 mg
Description: (§4) Over 40 individual volatile chemicals have been isolated from Cucurbita maxima blossoms and circa 25 of these have been unequivocally identified (Andersen, J. F., J. Agric. Food Chem., 35:60-62 (1987): Andersen, J. F. and Metcalf, R. L., J. Chem. Ecol., 12:687-699 (1986)). The major odor components were evaluated as potential attractants for adult Diabrotica species using cylindrical sticky traps baited with dental cotton wicks (Metcalf, R. L., and Lampman, R. L., Paper submitted to J. Econ. Entomol., (1988)) containing from 0.01 mg to 200 mg of volatile compound.

SCR = assay: as above; type: in vivo, Diabrotica undecimpunctata howardi; details: 24 hour; four replicate traps; 0.01 mg to 200 mg
Description: as §4

WCR = assay: as above; type: in vivo, Diabrotica virgifera virgifera; details: 24 hour; four replicate traps; 0.01 mg to 200 mg
Description: as §4

[4] = tested on: southern corn rootworm (SCR) adults; assay: Sticky trap attraction in sweet corn plots (Example 1); type: in vivo, Diabrotica undecimpunctata howardi; details: for Mean number of SCR per trap (±standard deviation): n = 4
Description: (§5) The attraction of Diabrotica species to single-component and multicomponent lures was evaluated in corn fields. The field experiments on attraction of SCR and WCR adults were conducted in 0.405-ha (1-acre) plots of “Illini Xtra Sweet” corn grown on the University of Illinois South Farms at Urbana, Ill., over a two year period. Most of the tests were conducted in August to correspond with the peak silk-feeding and oviposition periods of corn rootworm adults in central Illinois. In both years, the sweet corn plot was adjacent to a 0.405-ha trap crop of C. maxima cultivar “Blue Hubbard”, to provide high densitites of SCR and WCR adults in the corn plots (Howe, et al., Environ. Entomol., 5:745-751 (1976), Lampman, et al., J. Chem. Ecol., 13:959-975 (1987).
(§6) Attraction of Diabrotica species to volatile compounds was measured by the average number of beetles cought during a 24-h period on 1.0-liter cylindrical paper cartons (15.2 cm high, 27.9 cm circumference) which were evenly coated with clear insect adhesive, TangleTrap™ (Tanglefood Co., Grand Rapids, Mich.) The candidate attractants were applied by capillary micropiettes to cotton dental wicks (13 mm long by 6 mm diameter) that were previously impregnated with mineral oil to prolong volatilization. The chemicals were purchased from Aldrich Chemical Co., (Milwaukee, Wis.) and assayed by gas chromatography as >97% pure. Indole, a solid at ambient temperatures (m.p. 52-54° C.), was dissolved in glass-distilled acetone before dosing the cotton wicks. For dosage-acticity tests, the various components were mixed in equal quantities by weight and diluted to the appropriate dosage with acetone. Treated and untreated (control) wicks were attached to the top of the paper cartons with TangleTrap™ and the inverted traps were placed on 1-m-high posts between the sweet corn rows. Four replicates of each treatment and a control were conducted in a randomized complete block desgin. The sticky traps within a block (ca. 50-m row of corn) were 5-10 m apart (depending on the number of treatments in a particular test) and the blocks were 3 m apart. The traps were baited and placed in the field between 1000 and 1300 hours and beetle counts were taken after 24 h. The significance of treatments was determined by analysis of variance and the individual means were separated by Duncan's multiple range test (Statistical Package for Social Sciences (SPSS) (Nie, et al., SPSS: statistical package for the social sciences, 2nd ed. McGraw-Hill, N.Y. (1975)). Student's t test was used for comparisons of two means (Sokal, et al., Biometry, Freeman, San Francisco (1969). Significance levels were set at P=0.05 at all statistical analyses.
(§7) The initial field test in August of the first year evaluated the response of SCR and WCR adults of a mixture of veratrole (V), indole (I), phenylacetaldehyde (P), trans-anethole (A), and eugenol (E) (=VIPAE mixture), as well as to the individual components. Each component in the VIPAE mixture was present at a dosage of 20 mg per trap and was compared with the individual components at 100 mg per trap. The response of SCR and WCR adults to a range of VIPAE doses, 1-300 mg, was conducted on the following day. Fifty SCR adults were removed from each 100-mg VIPAE trap, and returned to the laboratory for sex determination. Additional analyses in August evaluated the reduction in trap catches produced by the sequential removal of the individual components from the VIPAE lure. After the primary components of the initial lure were determined, a modified multicomponent lure consisting of veratrole, indole, and phenylacetaldehyde (=VIP mixture) was compared with its individual components to determine whether the attraction of SCR adults was the result of interactive or additive factors. The attraction and synergistic response of SCR adults of the VIP mixture was verified by tests conducted in August of the following year. […]

[5] = tested on: western corn rootworm (WCR) adults; assay: as above; type: in vivo, Diabrotica virgifera virgifera; details: for Mean number of WCR per trap (±standard deviation): n = 4
Description: as §5, §6, §7

[6] = August 4, second year, each compound 20 mg per trap
[7] = August 7, second year, each compound 20 mg per trap
[8] = August first year, South Farms, 24 h, single compounds 100 mg per trap, mixture 20 mg of each component
[9] = August first year, single compounds 100 mg per trap, mixture 20 mg each component

Structure (SMILES)	Mean number of WCR per sticky trap after 24 hours [1]	Mean number of SCR per sticky trap after 24 hours [2]	Mean number of NCR per sticky trap after 24 hours [3]	Attractant Rating NCR (by limit of response) (NCR)	Attractant Rating SCR (by limit of response) (SCR)	Attractant Rating WCR (by limit of response) (WCR)	also measured
O=C(O)C=Cc1ccccc1 [XX, cinnamic acid]	12.7 ± 4.9^a per sticky trap	1.7 ± 0.5^a per sticky trap	1.7 ± 1.0^a per sticky trap	–	–	–	–
N#CCCc1ccccc1 [XXIII, phenyl propionitrile]	12.0 ± 4.2^a per sticky trap	23.7 ± 9.7^b per sticky trap	0.3 ± 0.5^a per sticky trap	–	–	–	–
CC(=O)OCC=Cc1ccccc1 [XIX, cinnamyl acetate]	24.0 ± 1.07^b per sticky trap	6.0 ± 1.5^a per sticky trap	5.7 ± 2.9^b per sticky trap	–	–	–	–
COC(=O)C=Cc1ccccc1 [XV, cinnamic acid methyl ester]	9.5 ± 4.5^a per sticky trap	2.0 ± 0.8^a per sticky trap	0.5 ± 0.6^a per sticky trap	–	–	–	Mean number of WCR adults per sticky trap (±standard deviation) after 24 hours ([1]; September 11): 1.7 ± 1.7^a per sticky trap; Mean number of SCR adults per sticky trap (±standard deviation) after 24 hours ([2]; September 11): 3.2 ± 1.7^ab per sticky trap
CC(=O)/C=C/C1C(C)=CCCC1(C)C (stereo not drawn) [α-ionone]	–	–	–	0 (200)	0 (200)	0 (200)	Mean number of D. barberi per day (±standard deviation) (D. barberi): 0.3 ± 0.5^a per day; Mean number of D. cristata per day (±standard deviation) (D. cristata): 2.8 ± 2.1^a per day; Mean number of D. v. virgifera per day (±standard deviation) (D. v. virgifera): 0.0^a per day; Mean number of D. u. howardi per day (±standard deviation) (D. u. howardi): 0.0^a per day
O=CCc1ccccc1 [Phenylacetaldehyde]	–	–	–	0 (200)	+2 (10-30)	0 (200)	relative percent activity (SCR) as compared with the highest mean value for the test date [4, 6]: 8%; Mean number of SCR per trap (±standard deviation) [4, 6]: 3.0 ± 1.2 per trap; relative percent activity (SCR) as compared with the highest mean value for the test date [4, 7]: 12%; Mean number of SCR per trap (±standard deviation) [4, 7]: 5.3 ± 3.2 per trap; Mean number of SCR per trap (±standard deviation) [4, 8]: 2.5 ± 1.9 per trap; relative percent activity of the mean SCR trap catch as compared with the highest mean value in the column [4, 9]: 12%; relative percent activity (WCR) as compared with the highest mean value for the test date [5, 6]: 35%; Mean number of WCR per trap (±standard deviation) [5, 6]: 17.8 ± 7.9 per trap; relative percent activity (WCR) as compared with the highest mean value for the test date [5, 7]: 42%; Mean number of WCR per trap (±standard deviation) [5, 7]: 13.3 ± 8.1 per trap; Mean number of WCR per trap (±standard deviation) [5, 8]: 1.8 ± 1.3 per trap; relative percent activity of the mean WCR trap catch as compared with the highest mean value in the column [5, 9]: 26%
CCC/C=C/CO [trans-2-hexenol]	–	–	–	0 (200)	+1 (30-100)	+1 (30-100)	–
O=Cc1ccccc1 [benzaldehyde]	–	–	–	0 (200)	0 (200)	0 (200)	–
